Target: T1, P2X7 receptor (Homo sapiens, UniProt Q99572)
T1 construct: host or cells: THP-1 monocytic cells differentiated overnight with LPS (25 ng/ml) and IFN-gamma (10 ng/ml)
T1 sequence (Q99572 1-595): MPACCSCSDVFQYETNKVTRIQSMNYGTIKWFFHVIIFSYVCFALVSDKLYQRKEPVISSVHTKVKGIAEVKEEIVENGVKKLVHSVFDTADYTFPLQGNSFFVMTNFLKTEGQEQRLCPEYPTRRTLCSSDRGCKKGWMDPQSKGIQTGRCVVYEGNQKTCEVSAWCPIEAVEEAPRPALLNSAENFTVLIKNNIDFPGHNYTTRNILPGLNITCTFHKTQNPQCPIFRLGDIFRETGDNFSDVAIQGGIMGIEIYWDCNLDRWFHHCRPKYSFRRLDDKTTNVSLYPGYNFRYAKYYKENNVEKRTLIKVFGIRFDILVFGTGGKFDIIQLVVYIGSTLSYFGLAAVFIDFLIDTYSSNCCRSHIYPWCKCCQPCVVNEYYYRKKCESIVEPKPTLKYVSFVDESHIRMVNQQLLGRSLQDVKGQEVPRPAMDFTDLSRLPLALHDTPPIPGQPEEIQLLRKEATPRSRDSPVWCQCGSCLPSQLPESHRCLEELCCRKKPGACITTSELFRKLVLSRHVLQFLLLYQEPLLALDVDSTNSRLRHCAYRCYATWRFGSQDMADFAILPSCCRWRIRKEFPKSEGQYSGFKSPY
Assay: P2X7 mediated pore formation (YO-PRO dye uptake, FLIPR)
Format: cell-based
Conditions: THP-1 cells
Excerpt: Tissue Culture: Cells of the THP-1 monocytic cell line (American Type Culture Collection, Rockville, Md.) were maintained in the log phase of growth in RPMI medium containing high glucose and 10% fetal calf serum (Invitrogen, Carlsbad, Calif.) according to established procedures (Humphrey B D and Dubyak G R (1996), Induction of the P2z/P2X7 Nucleotide Receptor and Associated Phospholipase D Activity by Lipopolysaccharide and IFN-γ in the Human THP-1 Monocytic Cell Line. J. Immunology 157:5627-37). Fresh vials of frozen THP-1 cells were initiated for growth every eight weeks. […]
P2X7 Mediated Pore Formation. […] Accordingly, the inhibitory activity of the antagonists of the present invention was determined by their capacity to inhibit the agonist-induced pore formation using the fluorescent dye YO-PRO (MW=629) and Fluorometric Imaging Plate Reader (FLIPR, Molecular Devices, Sunnydale, Calif.). […] The intensity of the fluorescence was captured by the CCD camera every 15 seconds for the first 10 minutes of agonist exposure followed by every 20 seconds for an additional 50 minutes with the data being digitally transferred to an interfaced PC. […] The test compounds were incubated for 10 minutes with the THP-1 cells at room temperature, after which the cells were stimulated with BzATP and fluorescence measured as described above in the […] of the antagonist. […]

benzoylbenzoic ATP [BzATP]
EC70 value for agonist activation: 50 µM
